Assay results as given in PMC11995216, “End-to-End Backbone Cyclization Enhances Passive Permeability of bRo5 Oligomeric Depsipeptides with Nonlinear Size Dependence” (ACS Medicinal Chemistry Letters, 2025).
Several values for one entry are separate records, joined by “and”; a condition that tells them apart may be missing. Identical values can stand only once. Like-named read-outs stand apart in the source and are kept apart here. Starred links: 1 amine or outer side, 2 acyl side, 3 side chain; linkers in the order of their positions; H or OH if unused. Non-standard residues stand in square brackets, D forms with d. Residues, ends and D or L forms follow the SMILES beside them. *: point of attachment. X1 = CCCCC[C@H](O[*:1])C(=O)[*:2]; Ahp(2) = CCCCC[C@H](N)C(=O)O; dNMeA = CN[C@H](C)C(=O)O; Boc = CC(C)(C)OC(=O)*; OBn = c1ccc(CO*)cc1

Legend:
[1] = PAMPA
[2] = initial concentration 500 uM, UV detection
PAMPA [3] = settings: UV detection
PAMPA [4] = settings: UV detection, initial concentration 500 uM
[5] = PAMPA; remark: listed apart in the source
[6] = calculated using Supplement Equation 1, UV detection
[7] = UV detection

CCCCC[C@H](NC(=O)[C@@H](C)N(C)C(=O)[C@H](CCCCC)OC(=O)[C@@H](C)N(C)C(=O)[C@H](CCCCC)NC(=O)[C@@H](C)N(C)C(=O)[C@H](CCCCC)OC(=O)[C@@H](C)N(C)C(=O)OC(C)(C)C)C(=O)OCc1ccccc1 [Compound L2.3] (Boc-[dNMeA][X1][dNMeA][Ahp(2)][dNMeA][X1][dNMeA][Ahp(2)]-OBn)
LogPapp [1]: -5.48 ± 0.04
Δ % diffusion [1]: ↑10%
donor concentration after incubation ([2]; Well 1 / [donor], Well 1): 388 µM and 369 µM
donor concentration after incubation ([2]; Well 2 / [donor], Well 2): 382 µM and 380 µM
donor concentration after incubation ([2]; Well 3 / [donor], Well 3): 369 µM and 377 µM
donor concentration after incubation ([2]; Well 4 / [donor], Well 4): 380 µM and 370 µM
donor concentration after incubation ([2]; Well 5 / [donor], Well 5): 353 µM and 358 µM
Papp (PAMPA [3]; Papp (x 10^-6 cm/s) / [row 1]): 3.76 ×10⁻⁶ cm/s
Papp (PAMPA [3]; Papp (x 10^-6 cm/s) / [row 2]): 3.12 ×10⁻⁶ cm/s
Papp (PAMPA [3]; Papp (x 10^-6 cm/s) / [row 3]): 3.36 ×10⁻⁶ cm/s
Papp (PAMPA [3]; Papp (x 10^-6 cm/s) / [row 4]): 3.52 ×10⁻⁶ cm/s
Papp (PAMPA [3]; Papp (x 10^-6 cm/s) / [row 5]): 3.88 ×10⁻⁶ cm/s
Papp (PAMPA [3]; Papp (x 10^-6 cm/s) / [row 6]): 3.19 ×10⁻⁶ cm/s
Papp (PAMPA [3]; Papp (x 10^-6 cm/s) / [row 7]): 3.05 ×10⁻⁶ cm/s
Papp (PAMPA [3]; Papp (x 10^-6 cm/s) / [row 8]): 2.93 ×10⁻⁶ cm/s
Papp (PAMPA [3]; Papp (x 10^-6 cm/s) / [row 9]): 3.14 ×10⁻⁶ cm/s
Papp (PAMPA [3]; Papp (x 10^-6 cm/s) / [row 10]): 3.2 ×10⁻⁶ cm/s
Acceptor Concentration (PAMPA [4]; Acceptor Concentration (uM) / [row 1]): 89.6 µM
Acceptor Concentration (PAMPA [4]; Acceptor Concentration (uM) / [row 2]): 71.9 µM
Acceptor Concentration (PAMPA [4]; Acceptor Concentration (uM) / [row 3]): 75.1 µM
Acceptor Concentration (PAMPA [4]; Acceptor Concentration (uM) / [row 4]): 81.3 µM
Acceptor Concentration (PAMPA [4]; Acceptor Concentration (uM) / [row 5]): 83.9 µM
Acceptor Concentration (PAMPA [4]; Acceptor Concentration (uM) / [row 6]): 71.2 µM
Acceptor Concentration (PAMPA [4]; Acceptor Concentration (uM) / [row 7]): 69.7 µM
Acceptor Concentration (PAMPA [4]; Acceptor Concentration (uM) / [row 8]): 66.2 µM
Acceptor Concentration (PAMPA [4]; Acceptor Concentration (uM) / [row 9]): 69.9 µM
Acceptor Concentration (PAMPA [4]; Acceptor Concentration (uM) / [row 10]): 69 µM
Papp [5]: 3.32 ± 0.31 ×10⁻⁶ cm/s
%T ([6]; Well 1 / %T, Well 1): 0.55% and 0.49%
%T ([6]; Well 2 / %T, Well 2): 0.56% and 0.52%
%T ([6]; Well 3 / %T, Well 3): 0.52% and 0.55%
%T ([6]; Well 4 / %T, Well 4): 0.5% and 0.53%
%T ([6]; Well 5 / %T, Well 5): 0.54% and 0.53%
% recovery ([7]; Well 1 / %R, Well 1): 96% and 88%
% recovery ([7]; Well 2 / %R, Well 2): 91% and 90%
% recovery ([7]; Well 4 / %R, Well 4): 92% and 88%
% recovery ([7]; Well 5 / %R, Well 5): 87% and 85%
